Source: the supplement of paper PMC10307832

How the values were obtained:
Assay in all cases: relative viability (nuclei count vs DMSO), 5 days (fraction); higher = more cells survive
[1] = compound: C[C@]1(O)C[C@@H](c2nc(-c3ccc4ccc(-c5ccccc5)nc4c3)c3c(N)nccn32)C1 [Linsitinib] + COc1cccc2cc(-c3nc([C@H]4CC[C@H](C(=O)O)CC4)n4ncnc(N)c34)[nH]c12 [OSI-027] (partner 0.5 µM)
How it was run: (§1)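 Each reported value is a median over duplicate plates. It expresses relative viability: treated-well nuclei count divided by vehicle-well nuclei count. Lung cancer cell lines in 1536-well plates were dosed by pin tool a day after seeding, alone with one drug or with a fixed anchor-drug dose plus five library-drug doses (not always all listed) in √10 steps, and nuclei were counted after 5 days.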

[2] = compound: C[C@]1(O)C[C@@H](c2nc(-c3ccc4ccc(-c5ccccc5)nc4c3)c3c(N)nccn32)C1 [Linsitinib] + CS(=O)(=O)N1CCN(Cc2cc3nc(-c4cccc5[nH]ncc45)nc(N4CCOCC4)c3s2)CC1 [Pictilisib] (partner 1 µM)
How it was run: as §1

[3] = compound: Cc1ccc(C(=O)N(CCCN)[C@@H](c2nc3cc(Cl)ccc3c(=O)n2Cc2ccccc2)C(C)C)cc1 [Ispinesib] + CS(=O)(=O)N1CCN(Cc2cc3nc(-c4cccc5[nH]ncc45)nc(N4CCOCC4)c3s2)CC1 [Pictilisib] (partner 1 µM)
How it was run: as §1

[4] = compound: Cc1ccc(C(=O)N(CCCN)[C@@H](c2nc3cc(Cl)ccc3c(=O)n2Cc2ccccc2)C(C)C)cc1 [Ispinesib] + Nc1ncn([C@H]2C[C@H](O)[C@@H](CO)O2)c(=O)n1 [Decitabine] (partner 2 µM)
How it was run: as §1

Cell Line	relative viability ([1]; first compound 0.01 µM)	relative viability ([1]; first compound 0.03162 µM)	relative viability ([1]; first compound 0.1 µM)	relative viability ([1]; first compound 0.3162 µM)	relative viability ([1]; first compound 1 µM)	relative viability ([2]; first compound 0.01 µM)	relative viability ([2]; first compound 0.03162 µM)	relative viability ([2]; first compound 0.1 µM)	relative viability ([2]; first compound 0.3162 µM)	relative viability ([2]; first compound 1 µM)	relative viability ([3]; first compound 0.001 µM)	relative viability ([3]; first compound 0.003162 µM)	relative viability ([3]; first compound 0.01 µM)	relative viability ([3]; first compound 0.03162 µM)	relative viability ([3]; first compound 0.1 µM)	relative viability ([4]; first compound 0.001 µM)	relative viability ([4]; first compound 0.003162 µM)	relative viability ([4]; first compound 0.01 µM)	relative viability ([4]; first compound 0.03162 µM)	relative viability ([4]; first compound 0.1 µM)
NCI-H441	0.672	0.616	0.546	0.307	0.312	0.51	0.683	0.498	0.413	0.412	0.441	0.505	0.468	0.145	0.209	0.216	0.139	0.192	0.18	0.193
NCI-H520	0.232	0.188	0.25	–	0.332	0.324	0.306	0.285	–	0.284	0.353	0.276	0.295	0.181	0.172	0.54	0.469	0.33	0.226	0.227
CAL-12T	0.625	0.688	0.679	0.351	0.297	0.44	0.368	0.585	0.379	0.336	0.413	0.545	0.523	0.295	0.172	–	–	–	–	–
HCC-827	0.769	0.836	0.821	–	0.771	1.07	1.19	1.11	0.88	1.12	0.979	0.964	1.05	0.8	0.734	0.303	0.373	0.32	0.294	0.234
LC-2-ad	0.803	0.827	0.684	0.414	0.422	0.423	0.369	0.409	0.396	0.269	0.507	0.509	0.438	0.0946	0.133	0.847	0.787	0.872	0.815	0.54
NCI-H2170	0.752	0.756	0.708	0.417	0.638	0.336	0.317	0.308	0.26	0.23	0.317	0.312	0.295	0.254	0.288	0.518	0.532	0.548	0.46	0.379
SW 1573	0.772	0.524	0.502	0.393	0.282	0.453	0.571	0.471	0.433	0.425	0.483	0.469	0.715	0.474	0.232	0.44	0.58	0.421	0.156	0.199
SK-MES-1	0.541	0.417	0.603	0.458	0.332	0.357	0.377	0.32	0.293	0.339	0.374	0.334	0.447	0.35	0.24	0.359	0.393	0.286	0.187	0.211
SW 900	0.565	0.593	0.481	0.397	0.352	–	–	–	–	–	–	–	–	–	–	0.388	0.344	0.43	0.396	0.311
NCI-H1299	–	–	–	–	–	0.864	0.794	0.766	0.796	0.648	0.951	0.727	0.789	0.37	0.152	–	–	–	–	–
Calu-6	–	–	–	–	–	0.878	0.805	0.916	0.748	0.716	1.09	0.727	0.186	0.113	0.155	–	–	–	–	–
NCI-H522	0.729	0.798	0.695	–	0.574	–	–	–	–	–	–	–	–	–	–	0.662	0.649	0.751	0.687	0.673
NCI-H2228	0.57	0.604	0.492	0.335	0.254	0.425	0.382	0.28	0.239	0.27	0.483	0.554	0.469	0.319	0.264	–	–	–	–	–
NCI-H1648	0.26	0.265	0.264	–	0.245	–	–	–	–	–	–	–	–	–	–	0.532	0.484	0.474	0.614	0.343
NCI-H2342	0.521	0.608	0.608	0.53	0.551	–	–	–	–	–	–	–	–	–	–	0.821	0.756	0.76	0.743	0.78
EBC-1	–	–	–	–	–	0.499	0.347	0.381	0.299	0.246	0.448	0.38	0.328	0.179	0.191	–	–	–	–	–
IA-LM	–	–	–	–	–	0.329	0.409	0.334	0.349	0.156	0.484	0.352	0.278	0.173	0.121	–	–	–	–	–
NCI-H1703	–	–	–	–	–	0.29	–	0.216	0.28	0.234	0.248	0.218	0.181	0.123	0.136	–	–	–	–	–
A549	–	–	–	–	–	0.514	0.442	0.344	0.242	0.273	0.674	0.525	0.831	0.173	0.158	0.149	0.254	0.326	0.315	0.196
NCI-H1623	0.408	0.432	0.398	–	0.285	–	–	–	–	–	–	–	–	–	–	–	–	–	–	–
NCI-H1563	0.695	0.786	0.714	0.87	0.63	0.665	0.668	0.647	0.657	0.545	0.68	0.723	0.533	0.54	0.528	–	–	–	–	–
